# Patent publication US10752588B2 (The Broad Institute, Inc., priority 2014, dated 2020)
# Experiments:
# Plasma stability, rat = assay type: in vitro ADME
# human D2R/β-arrestin [1] = target: T1, human D2R/β-arrestin (Homo sapiens (Human), UniProt P14416); assay: β-Arrestin agonist assay (PathHunter); assay type: cell-based; conditions: CHO-K1 cell line expressing human D2R/β-arrestin
# Summary of the method: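 After compound incubation, detection reagent (Buffer:Emerald II:Galactor-Star, 19:5:1) added and luminescence or fluorescence read.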
# plasma protein [2] = assay: Plasma protein binding, human; assay type: in vitro ADME; conditions: plasma, read-out: Plasma Protein Binding % bound
# plasma protein [3] = assay: Plasma protein binding, mouse; assay type: in vitro ADME; conditions: plasma, read-out: Plasma Protein Binding % bound
# Plasma stability, human = assay type: in vitro ADME
# human D2R/β-arrestin [4] = target: T1, human D2R/β-arrestin; assay: cell-based; conditions: β-arrestin Antagonist, CHO-K1 cell line expressing human D2R/β-arrestin; quinpirole used as agonist
# plasma protein [5] = assay: Plasma protein binding, rat; assay type: in vitro ADME; conditions: plasma, read-out: Plasma Protein Binding % bound
# human D2R/β-arrestin [6] = target: T1, human D2R/β-arrestin; assay: cell-based; conditions: cAMP Antagonist, CHO-K1 cell line expressing human D2R/β-arrestin; quinpirole used as agonist
# Experimental: The detection reagents are then added, and the read-out is detected.
# Cells were prepared for assays by growing cultures for up to 2 weeks (from about 6-20 passages). A vial of frozen cells was thawed in a water bath held at 37° C. The cells were then transferred into a 50 ml tube with 10 ml growth media. The vial was rinsed with growth media and the contents transferred to the 50 ml tube. The 50 ml tube was centrifuged at 1200 rpm for 5 minutes at room temperature. […] When the cells reached about 90% confluence (approximately 3 days between passages), the cells were passaged and used for either the agonist or antagonist assays as described below.
# The cells were prepared for Gi/cAMP assays as described above. The assays were performed using a PE Lance Ultra cAMP kit (TRF0263). The cells were grown on 225 mm dishes, then washed once with 1×PBS (Cellgro) before digestion with 2.5 ml 1× Detachment reagent (DRX 92-0009) for about 2 minutes. PBS (20 ml) was then added to the plate, and the cells were transferred to a 50 ml centrifuge tube, and centrifuged at room temperature using BD Dynac III, at 1200 rpm for 5 minutes. […] The plates were then incubated at room temperature for about 30 minutes before addition of Eu-cAMP tracer solution (100, PerkinElmer) and then ULight-anti-cAMP solution (100) to each well.
# Solubility in PBS = assay type: physicochemical; conditions: aqueous buffer
# [7] = Microsomal stability, rat; assay type: in vitro ADME
# [8] = Microsomal stability, human; assay type: in vitro ADME
# human D2R/β-arrestin [9] = target: T1, human D2R/β-arrestin; assay: Gi/cAMP agonist assay (Lance Ultra cAMP, Forskolin); assay type: cell-based; conditions: CHO-K1 cell line expressing human D2R/β-arrestin
# Summary of the method: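 Cells were plated and incubated before compounds were pin-transferred and incubated for 10 min at 37 °C. Forskolin was then added to stimulate cAMP. cAMP was detected by Lance Ultra TR-FRET using Eu-cAMP tracer and ULight-anti-cAMP antibody.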
# [10] = Microsomal stability, mouse
# T1 sequence (P14416 whole entry): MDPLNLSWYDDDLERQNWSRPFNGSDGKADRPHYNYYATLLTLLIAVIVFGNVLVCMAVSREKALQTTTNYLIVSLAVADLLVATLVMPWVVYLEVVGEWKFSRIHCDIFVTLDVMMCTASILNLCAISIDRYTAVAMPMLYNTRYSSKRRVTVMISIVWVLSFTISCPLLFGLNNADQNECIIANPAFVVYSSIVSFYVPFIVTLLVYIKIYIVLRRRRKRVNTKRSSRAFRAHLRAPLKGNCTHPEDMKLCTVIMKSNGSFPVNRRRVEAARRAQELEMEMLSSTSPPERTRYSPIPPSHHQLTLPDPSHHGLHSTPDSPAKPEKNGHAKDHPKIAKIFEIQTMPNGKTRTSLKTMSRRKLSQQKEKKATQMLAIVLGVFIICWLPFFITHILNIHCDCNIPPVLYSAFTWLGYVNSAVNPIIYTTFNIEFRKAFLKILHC
smiles,measurement,setting,value
"O=C(NC(c1cccc(C(F)(F)F)c1)c1ccccn1)C1CCN(CCOc2ccccc2)CC1 (stereo not drawn) [Compound 32, 1-(2-phenoxyethyl)-N-(pyridin-2-yl(3-(trifluoromethyl)phenyl)methyl) piperidine-4-carboxamide]",Plasma Stability: % remaining after 5 hours,"Plasma stability, rat",98%
same,EC50,human D2R/β-arrestin [1],> 30000 nM
same,fraction unbound,plasma protein [2],0.03
same,fraction unbound,plasma protein [3],0.031
same,Plasma Stability: % remaining after 5 hours,"Plasma stability, human",91%
same,IC50,human D2R/β-arrestin [4],100 to 1000 nM
same,fraction unbound,plasma protein [5],0.023
same,IC50,human D2R/β-arrestin [6],100 to 1000 nM
same,solubility,Solubility in PBS,151 µM
same,Microsomal Stability: % remaining after 60 minutes,[7],46%
same,Microsomal Stability: % remaining after 60 minutes,[8],61%
same,Plasma Stability: % remaining after 5 hours,"Plasma stability, mouse",74%
same,EC50,human D2R/β-arrestin [9],10000 to 30000 nM
same,Microsomal Stability: % remaining after 60 minutes,[10],37%
O=C(NC(c1ccccc1)c1ccc(F)cc1)C1CCN(CCOc2ccccc2)CC1 (stereo not drawn) [Compound 45],Plasma Stability: % remaining after 5 hours,"Plasma stability, rat",85%
same,EC50,human D2R/β-arrestin [1],> 30000 nM
same,fraction unbound,plasma protein [2],0.017
same,fraction unbound,plasma protein [3],0.015
same,Plasma Stability: % remaining after 5 hours,"Plasma stability, human",95%
same,IC50,human D2R/β-arrestin [4],< 100 nM
same,fraction unbound,plasma protein [5],0.012
same,IC50,human D2R/β-arrestin [6],< 100 nM
same,solubility,Solubility in PBS,6.5 µM
same,Microsomal Stability: % remaining after 60 minutes,[7],59%
same,Microsomal Stability: % remaining after 60 minutes,[8],56%
same,Plasma Stability: % remaining after 5 hours,"Plasma stability, mouse",91%
same,EC50,human D2R/β-arrestin [9],> 30000 nM
same,Microsomal Stability: % remaining after 60 minutes,[10],62%
O=C(NC(c1ccc(Cl)cc1)c1cccc(F)c1)C1CCN(CCOc2ccccc2)CC1 (stereo not drawn) [Compound 41],Plasma Stability: % remaining after 5 hours,"Plasma stability, rat",96%
same,EC50,human D2R/β-arrestin [1],> 30000 nM
same,fraction unbound,plasma protein [2],0.007
same,fraction unbound,plasma protein [3],0.006
same,Plasma Stability: % remaining after 5 hours,"Plasma stability, human",100%
same,IC50,human D2R/β-arrestin [4],1000 to 10000 nM
same,fraction unbound,plasma protein [5],0.014
same,IC50,human D2R/β-arrestin [6],100 to 1000 nM
same,solubility,Solubility in PBS,< 0.1 µM
same,Microsomal Stability: % remaining after 60 minutes,[7],78%
same,Microsomal Stability: % remaining after 60 minutes,[8],45%
same,Plasma Stability: % remaining after 5 hours,"Plasma stability, mouse",100%
same,EC50,human D2R/β-arrestin [9],> 30000 nM
same,Microsomal Stability: % remaining after 60 minutes,[10],64%
O=C(NC(c1cccc(F)c1)c1ccccn1)C1CCN(CCOc2ccccc2)CC1 (stereo not drawn) [Compound 26],Plasma Stability: % remaining after 5 hours,"Plasma stability, rat",99%
same,EC50,human D2R/β-arrestin [1],> 30000 nM
same,fraction unbound,plasma protein [2],0.062
same,fraction unbound,plasma protein [3],0.057
same,Plasma Stability: % remaining after 5 hours,"Plasma stability, human",100%
same,IC50,human D2R/β-arrestin [4],1000 to 10000 nM
same,fraction unbound,plasma protein [5],0.046
same,IC50,human D2R/β-arrestin [6],100 to 1000 nM
same,solubility,Solubility in PBS,460 µM
same,Microsomal Stability: % remaining after 60 minutes,[7],96%
same,Microsomal Stability: % remaining after 60 minutes,[8],84%
same,Plasma Stability: % remaining after 5 hours,"Plasma stability, mouse",92%
same,EC50,human D2R/β-arrestin [9],> 30000 nM
same,Microsomal Stability: % remaining after 60 minutes,[10],66%
O=C(NC(c1ccc(Cl)cc1)c1ccccn1)C1CCN(CCOc2cc(F)ccc2F)CC1 (stereo not drawn) [Compound 14],Plasma Stability: % remaining after 5 hours,"Plasma stability, rat",78.2%
same,EC50,human D2R/β-arrestin [1],> 30000 nM
same,fraction unbound,plasma protein [2],0.009
same,fraction unbound,plasma protein [3],0.015
same,Plasma Stability: % remaining after 5 hours,"Plasma stability, human",96.7%
same,IC50,human D2R/β-arrestin [4],100 to 1000 nM
same,fraction unbound,plasma protein [5],0.006
same,IC50,human D2R/β-arrestin [6],> 30000 nM
same,solubility,Solubility in PBS,36.1 µM
same,Microsomal Stability: % remaining after 60 minutes,[7],44%
same,Microsomal Stability: % remaining after 60 minutes,[8],49%
same,Plasma Stability: % remaining after 5 hours,"Plasma stability, mouse",100%
same,EC50,human D2R/β-arrestin [9],< 100 nM
same,Microsomal Stability: % remaining after 60 minutes,[10],11%
"O=C(NC(c1ccc(C(F)(F)F)cc1)c1ccccn1)C1CCN(CCOc2ccccc2)CC1 (stereo not drawn) [Compound 31, 1-(2-phenoxyethyl)-N-(pyridin-2-yl(4-(trifluoromethyl)phenyl)methyl) piperidine-4-carboxamide]",Plasma Stability: % remaining after 5 hours,"Plasma stability, rat",100%
same,EC50,human D2R/β-arrestin [1],> 30000 nM
same,fraction unbound,plasma protein [2],0.023
same,fraction unbound,plasma protein [3],0.026
same,Plasma Stability: % remaining after 5 hours,"Plasma stability, human",94.2%
same,IC50,human D2R/β-arrestin [4],1000 to 10000 nM
same,fraction unbound,plasma protein [5],0.014
same,IC50,human D2R/β-arrestin [6],> 30000 nM
same,solubility,Solubility in PBS,27 µM
same,Microsomal Stability: % remaining after 60 minutes,[7],55%
same,Microsomal Stability: % remaining after 60 minutes,[8],53%
same,Plasma Stability: % remaining after 5 hours,"Plasma stability, mouse",84.5%
same,EC50,human D2R/β-arrestin [9],100 to 1000 nM
same,Microsomal Stability: % remaining after 60 minutes,[10],57%
